Measured values: patent US9957264B2 (Merck Sharp & Dohme Corp., priority 2013, dated 2018)
pIC50: −log10 of the molar value.

Legend:
[1] = molecular target: JAK1 (recombinant purified GST-tagged catalytic domain) (Homo sapiens (Human), UniProt P23458); experiment: Jak Biochemical HTRF Assay (JAK1); conditions: [ATP] 31.8 μM
Procedure, shortened: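 Phosphorylation of a common biotinylated peptide by each catalytic domain is measured by HTRF. The ATP-started reaction runs 120 min at room temperature before EDTA quench and detection.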

[2] = molecular target: JAK2 (recombinant purified GST-tagged catalytic domain) (Homo sapiens (Human), UniProt O60674); experiment: Jak Biochemical HTRF Assay (JAK2); conditions: [ATP] 8.5 μM
Sequence of JAK2 (recombinant purified GST-tagged catalytic domain) (O60674 849-1124): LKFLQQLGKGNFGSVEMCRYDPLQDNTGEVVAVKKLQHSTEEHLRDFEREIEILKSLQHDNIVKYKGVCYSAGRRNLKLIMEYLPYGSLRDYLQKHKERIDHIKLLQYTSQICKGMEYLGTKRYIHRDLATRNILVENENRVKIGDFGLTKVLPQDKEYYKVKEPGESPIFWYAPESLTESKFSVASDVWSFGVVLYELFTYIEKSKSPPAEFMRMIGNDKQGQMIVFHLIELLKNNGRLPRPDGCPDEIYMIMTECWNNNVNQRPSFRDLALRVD

Sequence of JAK1 (recombinant purified GST-tagged catalytic domain) (P23458 875-1153): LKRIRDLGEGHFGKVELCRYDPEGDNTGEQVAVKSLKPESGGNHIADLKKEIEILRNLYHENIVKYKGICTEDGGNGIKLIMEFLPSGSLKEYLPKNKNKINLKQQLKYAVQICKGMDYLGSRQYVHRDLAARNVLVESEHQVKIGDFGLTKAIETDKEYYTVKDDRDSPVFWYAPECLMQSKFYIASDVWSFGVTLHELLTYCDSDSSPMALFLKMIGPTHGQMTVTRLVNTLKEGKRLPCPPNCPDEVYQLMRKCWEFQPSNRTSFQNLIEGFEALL

pIC50 [1]	pIC50 [2]	SMILES
9.66	8.55	N#CC[C@@]1(n2nc(Nc3ccccc3)c3c(=O)[nH]ccc32)CCCOC1 [Example 5-27, (S)-2-(3-(4-oxo-3-(phenylamino)-4,5-dihydro-1H-pyrazolo[4,3-c]pyridin-1-yl)tetrahydro-2H-pyran-3-yl)acetonitrile]
9.01	8.82	CCN(C(C)(C)C)S(=O)(=O)c1ccc(Nc2nn(C3(CC#N)CCCC3)c3cc[nH]c(=O)c23)cc1 [Example 5-135, N-(tert-butyl)-4-((1-(1-(cyanomethyl)cyclopentyl)-4-oxo-4,5-dihydro-1H-pyrazolo[4,3-c]pyridin-3-yl)amino)-N-ethylbenzene sulfonamide]
9.82	9.48	CCC(C)(C)S(=O)(=O)c1ccc(Nc2nn([C@]3(CC#N)CCCOC3)c3cc[nH]c(=O)c23)cc1 [Example 5-196, {(3S)-3-[3-({4-[(1,1-dimethylpropyl)sulfonyl]phenyl}amino)-4-oxo-4,5-dihydro-1H-pyrazolo[4,3-c]pyridin-1-yl]tetrahydro-2H-pyran-3-yl}acetonitrile]
9.82	8.84	COC1CN([C@H]2CC[C@](CC#N)(n3nc(Nc4ccc(OC(F)(F)F)cc4)c4c(=O)[nH]ccc43)CC2)C1 [Example 18-16, Trans 2-(4-(3-methoxyazetidin-1-yl)-1-(4-oxo-3-((4-(trifluoromethoxy)phenyl)amino)-4,5-dihydro-1H-pyrazolo[4,3-c]pyridin-1-yl)cyclohexyl)acetonitrile]
9.70	8.58	N#CC[C@]1(n2nc(Nc3ccc4c(c3)CN(C3CCN(CC(F)(F)F)CC3)S4(=O)=O)c3c(=O)[nH]ccc32)CCOC[C@H]1F (single isomer, unassigned) [Example 5-278, 2-((3S,4S or 3R,4R)-4-(3-((1,1-dioxido-2-(1-(2,2,2-trifluoroethyl)piperidin-4-yl)-2,3-dihydrobenzo[d]isothiazol-5-yl)amino)-4-oxo-4,5-dihydro-1H-pyrazolo[4,3-c]pyridin-1-yl)-3-fluorotetrahydro-2H-pyran-4-yl)acetonitrile]
9.26	9.30	CC(C)(C)OC(=O)N1CCC(CC#N)(n2nc(Nc3ccc([C@@]4(C(F)(F)F)CCCN4)cc3)c3c(=O)[nH]ccc32)CC1 (single isomer, unassigned) [Example 21-18, (R or S)-tert-butyl 4-(cyanomethyl)-4-(4-oxo-3-(4-(2-(trifluoromethyl)pyrrolidin-2-yl)phenylamino)-4,5-dihydropyrazolo[4,3-c]pyridin-1-yl)piperidine-1-carboxylate]
9.68	8.49	Cc1cccc(Nc2nn(C3(CC#N)CCN(C(=O)OC(C)(C)C)CC3)c3cc[nH]c(=O)c23)c1 [Example 5-65, tert-butyl 4-(3-(m-toluidino)-4-oxo-4,5-dihydropyrazolo[4,3-c]pyridin-1-yl)-4-(cyanomethyl)piperidine-1-carboxylate]
10.22	10.00	CC(C#N)OC(=O)N1CCC(CC#N)(n2nc(Nc3ccc(S(=O)(=O)N(C)C)cc3)c3c(=O)[nH]ccc32)CC1 (stereo not drawn) [Example 11-10, 1-cyanoethyl 4-(cyanomethyl)-4-(3-((4-(N,N-dimethylsulfamoyl)phenyl)amino)-4-oxo-4,5-dihydro-1H-pyrazolo[4,3-c]pyridin-1-yl)piperidine-1-carboxylate]
9.92	9.60	CC(C)(C)OC(=O)[C@@H]1CC[C@@](CC#N)(n2nc(Nc3ccc(S(=O)(=O)C4CC4)cc3)c3c(=O)[nH]ccc32)CO1 [Example 5-236, (2S,5S)-tert-butyl 5-(cyanomethyl)-5-(3-((4-(cyclopropylsulfonyl)phenyl)amino)-4-oxo-4,5-dihydro-1H-pyrazolo[4,3-c]pyridin-1-yl)tetrahydro-2H-pyran-2-carboxylate]
9.19	9.08	Cc1cc(Nc2nn([C@]3(CC#N)CCCOC3)c3cc[nH]c(=O)c23)ccc1C(=O)N1CCCC[C@H]1C [Example 20-3, 2-((S)-3-(3-((3-methyl-4-((R)-2-methylpiperidine-1-carbonyl)phenyl)amino)-4-oxo-4,5-dihydro-1H-pyrazolo[4,3-c]pyridin-1-yl)tetrahydro-2H-pyran-3-yl)acetonitrile]
9.89	9.19	CN(C)c1ccc2cc(Nc3nn([C@]4(CC#N)CC[C@@H](C(=O)OC(C)(C)C)OC4)c4cc[nH]c(=O)c34)ccc2n1 [Example 5-222, (2S,5S)-tert-butyl 5-(cyanomethyl)-5-(3-((2-(dimethylamino)quinolin-6-yl)amino)-4-oxo-4,5-dihydro-1H-pyrazolo[4,3-c]pyridin-1-yl)tetrahydro-2H-pyran-2-carboxylate]
10.05	9.39	CS(=O)(=O)c1ccc(Nc2nn(C3(CC#N)CCN(c4ccc(Br)cn4)CC3)c3cc[nH]c(=O)c23)cc1 [Example 15-8, 2-(1-(5-bromopyridin-2-yl)-4-(3-((4-(methylsulfonyl)phenyl)amino)-4-oxo-4,5-dihydro-1H-pyrazolo[4,3-c]pyridin-1-yl)piperidin-4-yl)acetonitrile]
9.85	9.77	CC(C)(C)NC(c1ccc(Nc2nn([C@]3(CC#N)CCCOC3)c3cc[nH]c(=O)c23)cc1)C(F)(F)F (single isomer, unassigned) [Example 5-189, {(3S)-3-[3-({4-[(1R or 1S)-1-(tert-butylamino)-2,2,2-trifluoroethyl]phenyl}amino)-4-oxo-4,5-dihydro-1H-pyrazolo [4,3-c]pyridin-1-yl]tetrahydro-2H-pyran-3-yl}acetonitrile]
10.10	9.54	CN(C)S(=O)(=O)c1ccc(Nc2nn(C3(CC#N)CCN(C(=O)C4CC4)CC3)c3cc[nH]c(=O)c23)cc1 [Example 9-6, 4-({1-[4-(cyanomethyl)-1-(cyclopropylcarbonyl)piperidin-4-yl]-4-oxo-4,5-dihydro-1H-pyrazolo[4,3-c]pyridin-3-yl}amino)-N,N-dimethylbenzenesulfonamide]
10.40	9.74	CNS(=O)(=O)c1ccc(Nc2nn([C@]3(CC#N)CC[C@@H](C(=O)OC(C)(C)C)OC3)c3cc[nH]c(=O)c23)cc1 [Example 5-94, (2S,5S)-tert-butyl 5-(cyanomethyl)-5-(3-((4-(N-methylsulfamoyl)phenyl)amino)-4-oxo-4,5-dihydro-1H-pyrazolo[4,3-c]pyridin-1-yl)tetrahydro-2H-pyran-2-carboxylate]
9.08	8.16	CC(C)(C)N1Cc2cc(Nc3nn([C@]4(CC#N)CC[C@H](N5CC(F)C5)CC4)c4cc[nH]c(=O)c34)ccc2S1(=O)=O [Example 18-36]
9.89	8.87	Cc1cc(Nc2nn([C@]3(CC#N)CC[C@@H](C(=O)OC(C)(C)C)OC3)c3cc[nH]c(=O)c23)ccc1-n1cccn1 [Example 5-219, (2S,5S)-tert-butyl 5-(cyanomethyl)-5-(3-((3-methyl-4-(1H-pyrazol-1-yl)phenyl)amino)-4-oxo-4,5-dihydro-1H-pyrazolo [4,3-c]pyridin-1-yl) tetrahydro-2H-pyran-2-carboxylate]
9.14	8.85	CN(C(C)(C)C)S(=O)(=O)c1ccc(Nc2nn(C3(CC#N)CCOCC3)c3cc[nH]c(=O)c23)cc1 [Example 5-253, N-(tert-butyl)-4-((1-(4-(cyanomethyl)tetrahydro-2H-pyran-4-yl)-4-oxo-4,5-dihydro-1H-pyrazolo[4,3-c]pyridin-3-yl)amino)-N-methylbenzenesulfonamide]
8.97	8.60	CCOC(=O)C(C)(C)C(O)(c1ccc(Nc2nn([C@]3(CC#N)CCCOC3)c3cc[nH]c(=O)c23)cc1)C(F)(F)F (single isomer, unassigned) [Example 5-112, (S or R)-ethyl 3-(4-((1-((3S)-3-(cyanomethyl)tetrahydro-2H-pyran-3-yl)-4-oxo-4,5-dihydro-1H-pyrazolo[4,3-c]pyridin-3-yl)amino)phenyl)-4,4,4-trifluoro-3-hydroxy-2,2-dimethylbutanoate]
9.51	9.12	CN(C)S(=O)(=O)c1ccc(Nc2nn(C3(CC#N)CCN(Cc4ccc(-c5ccon5)cc4)CC3)c3cc[nH]c(=O)c23)cc1 [Example 8-13, 4-({1-[4-(cyanomethyl)-1-(4-isoxazol-3-ylbenzyl)piperidin-4-yl]-4-oxo-4,5-dihydro-1H-pyrazolo[4,3-c]pyridin-3-yl}amino)-N,N-dimethylbenzenesulfonamide]
9.62	8.79	COCC(=O)N1CCC(CC#N)(n2nc(Nc3ccc(S(=O)(=O)N(C)C)cc3)c3c(=O)[nH]ccc32)CC1 [Example 9-3, 4-({1-[4-(cyanomethyl)-1-(methoxyacetyl)piperidin-4-yl]-4-oxo-4,5-dihydro-1H-pyrazolo[4,3-c]pyridin-3-yl}amino)-N,N-dimethylbenzenesulfonamide]
9.66	9.32	CC(C)(C)S(=O)(=O)c1ccc(Nc2nn(C3(CC#N)CCCC3)c3cc[nH]c(=O)c23)cc1 [Example 5-122, 2-(1-(3-((4-(tert-butylsulfonyl)phenyl)amino)-4-oxo-4,5-dihydro-1H-pyrazolo[4,3-c]pyridin-1-yl)cyclopentyl)acetonitrile]
9.49	8.53	COC(=O)N1CCC(CC#N)(n2nc(Nc3ccc(C(F)(F)F)cc3)c3c(=O)[nH]ccc32)CC1 [Example 5-147, methyl 4-(cyanomethyl)-4-(4-oxo-3-((4-(trifluoromethyl)phenyl)amino)-4,5-dihydro-1H-pyrazolo[4,3-c]pyridin-1-yl)piperidine-1-carboxylate]
9.51	8.82	N#CCC1(n2nc(Nc3ccc4c(c3)CN(CC(F)(F)F)C4=O)c3c(=O)[nH]ccc32)CCCC1 [Example 5-138, 2-(1-(4-oxo-3-((1-oxo-2-(2,2,2-trifluoroethyl)isoindolin-5-yl)amino)-4,5-dihydro-1H-pyrazolo[4,3-c]pyridin-1-yl)cyclopentyl)acetonitrile]
